Measurements published in patent publication US10315990B2, “Isothiocyanate compounds and isothiocyanate XPO1 protein inhibitor drugs thereof” (DRIVINGFORCE THERAPEUTICS Co., Ltd., priority 2015, dated 2019).
Read-outs that look alike come from different tables or passages of the source.

Columns and labels:
[1] = system: SK-OV3 (high metastasis type ovarian cancer cell line); assay: Ovarian cancer intraperitoneal metastasis animal model; type: in vivo, nudemice (BALB/c-nu/nu); conditions: Mus musculus, SK-OV-3, ip; for response vs control in vivo at 80 mg/kg: 504 h, read-out: T/C (%); for mortality at 80 mg/kg: 720 h, six mice per group, read-out: Mortality (within 30 days) (converted)
Experimental: The ovarian cancer intraperitoneal metastasis animal model is one of most classic animal models for studying anti-ovarian cancer metastasis drug. Sixty 5 to 6-week-old female nudemice with similar weight (BALB/c-nu/nu) were chosen. SK-OV3 (high metastasis type ovarian cancer cell line) stably expressing green fluorescence protein was screened, and prepared into a cell suspension of 2×10^6 cells/100 μl with serum-free PRMI1640 medium. […] Three weeks later, the cancer was detected with a small animal in vivo imaging apparatus (Xenogen, School of Medicine, Shanghai Jiaotong University) and photos thereof were taken. […] In the table, T represents the drug-treated group, and C represents the blank control group. T/C is (V/V0 of compound-treated group)/(V/V0 of blank control group) in which V represents the cancer volume of mouse on the day the detection was performed, and V0 represents the cancer volume of mouse on the day the administration begun.

NCI-H1975 = assay: cells; type: cell-based; conditions: Homo sapiens
Experimental: (§1) NCI-H1975 and NCI-H1650 are two typical high metastasis type lung cancer cell lines. The therapeutic effect of the representative compound for the metastasis type lung cancers can be preliminarily assessed by detecting the inhibitory activity of the representative compound for the two cell lines. The lung cancer cell line was inoculated on 96-well cell culture plate in an amount of 6000 cells per well and cultured at 37° C. for 24 hours, and then treated solely with the compound added therein and cultured. Seventy-two hours later, MTT or CCK-8 method was used to detect the inhibitory activity of the compound for the two lung cancer cell lines.

NCI-H1650 = assay: cells; type: cell-based; conditions: Homo sapiens
Experimental: as §1

SW620 = assay: Inhibitory activity for high metastasis type colon cancer cell line (MTT or CCK-8); type: cell-based; conditions: Homo sapiens
Experimental: (§2) SW620 and HCT116 are two typical high metastasis type colon cancer cell lines. The colon cancer cell line was inoculated on 96-well cell culture plate in an amount of 6000 cells per well and cultured at 37° C. for 24 hours, and then treated solely with the compound added therein and cultured. Seventy-two hours later, MTT or CCK-8 method was used to detect the inhibitory activity of the compound for the two high metastasis type colon cancer cell lines.

HCT116 = assay: as above; type: cell-based; conditions: Homo sapiens
Experimental: as §2

IBD animal model = assay: Macroscopic pathological changes of IBD animal model (enteroclysis with TNBS); type: in vivo, SD rats; conditions: 80 mg/kg intragastrically daily, TNBS rats, score 0-5, 10 animals
Experimental: Eight-week-old male SD rats (10 rats per group) were fasted for 24 hours and anaesthetized with diethyl ether. 50% ethanol and TNBS (2,4,6-trinitrobenzenesulfonic acid) were mixed to prepare a solution. In the IBD model group, a tube made of vinyl resin was inserted 5 cm from anus, and enteroclysis was performed with the TNBS solution in a dose of 100 mg/kg. The rats were hung upside down 30 seconds later after the enteroclysis to ensure no leakage of the TNBS solution. In the control group, the TNBS solution was replaced with normal saline with which enteroclysis was performed. Seven days later after the enteroclysis with the TNBS solution or normal saline, animals were sacrificed and dissected. […] Two weeks later after treated with the drugs, the animals were sacrificed and dissected, and large intestine thereof was taken out and fixed in 4% formalin solution for 30 minutes. The large intestine of the animals was cut lengthwise from the mesentery side to take photos for rectum portion and measure the weight of rectum. Based on the macroscopic observation and judgment score (Table 2-1), ulceration and bleeding states of rectum portion were scored according to the macroscopic observation scoring standard.

XPO1 protein = target: T1, XPO1 protein (Homo sapiens, UniProt O14980); assay: Inhibitory activity for XPO1 protein (NES-GFP nuclear export, laser confocal microscope); type: cell-based; conditions: NES-GFP nuclear export, cells treated for 2 hours
T1 construct: Sixteen hours later, NES-GFP plasmid was transfected with liposome; endogenous in cells
Excerpt: NES (nuclear export signal) is a nuclear export signal peptide recognized by XPO1 protein. XPO1 recognizes NES sequence peptide segment of biomacromolecule and exports the biomacromolecule out of nucleus. NES-GFP protein is obtained by co-expressing green fluorescence protein GFP and NES sequence peptide segment by using a eukaryotic expression plasmid. Inhibitory activity of the representative compound for XPO1 protein can be assessed by detecting influence of the compound on NES-GFP cell localization.
The cells were digested with trypsin, counted, and inoculated on 96-well plate in an amount of 1.5×10^4 cells per well. Sixteen hours later, NES-GFP plasmid was transfected with liposome.

HMLE-Snail cell line = assay: Formation of HMLE-Snail cell line spheroids; type: cell-based; conditions: read-out: Colony (%): cell colony number of drug-treated group/cell colony number of control group × 100%
Experimental: HMLE-Snail cell line is one of most classic cell models for studying tumor cell metastasis and EMT path. HMLE-Snail cell line highly expresses Snail protein, and thus one of most remarkable features thereof is that it has spherical cellular morphology (spheroid). […] The HMLE-Snail cell line used in the present invention was donated by Dr. Robert Weinberg from America Massachusetts Whitehead Institute. HMLE-Snail cells were suspended in a liquid culture medium (in which B-27 and N-2 were added, purchased from America Invitrogen Corporation) containing DMEM/F12 in a ratio of 1:1, in an amount of 1.0×10^3 cells/ml, and cultured in an ultra low attachment culture plate so as to allow spheroids to be formed. Seven days later, spheroids were collected by centrifugation, and counted. […] Docetaxel is a common clinical chemotherapy drug.

U2932 = assay: Inhibitory activity for high metastasis type lymphoma cell line (MTT or CCK-8); type: cell-based; conditions: Homo sapiens
Experimental: (§3) Jeko-1, Raji and U2932 are three typical high metastasis type lymphoma cell lines. The lymphoma cell line was inoculated on 96-well cell culture plate in an amount of 6000 cells per well and cultured at 37° C. for 24 hours, and then treated solely with the compound added therein and cultured. Seventy-two hours later, MTT or CCK-8 method was used to detect the inhibitory activity of the compound for the two high metastasis type lymphoma cell lines.

Jeko-1 = assay: as above; type: cell-based; conditions: Homo sapiens
Experimental: as §3

Raji = assay: as above; type: cell-based; conditions: Homo sapiens
Experimental: as §3

TNF-α = assay: Serum TNF-α level of IBD animal model (ELISA); type: in vivo, SD rats; conditions: 80 mg/kg, three days after making the TNBS model
Excerpt: (§4) Inflammatory bowel disease is an autoimmune disease. […] The therapeutic effect of the representative compound for the immune system disease or inflammation can be assessed by detecting change in levels of some important cytokines such as TNF-α and IL-6 at downstream of the signal path.

IL-6 = assay: Serum IL-6 level of IBD animal model (ELISA); type: in vivo, SD rats; conditions: 80 mg/kg, three days after making the TNBS model
Excerpt: as §4

HO-8910 = assay: Inhibitory activity for high metastasis type ovarian cancer cell line (MTT or CCK-8); type: cell-based; conditions: HO-8910, 72 hours; read-out: IC50
Experimental: (§5) The two cell lines were inoculated on 96-well cell culture plate in an amount of 6000 cells per well and cultured at 37° C. for 24 hours, and then treated solely with the representative compound added therein and cultured. Seventy-two hours later, MTT or CCK-8 method was used to detect the inhibitory activity of the representative compound for the high metastasis type ovarian cancer cell lines.

A2780 = assay: as above; type: cell-based; conditions: Homo sapiens; A2780, 72 hours; read-out: IC50
Experimental: as §5

[2] = 10 μg/ml, treated for 24 hours, control = 100
[3] = U2932, 72 hours, read-out: IC50
[4] = Jeko-1, 72 hours, read-out: IC50

T1 sequence (O14980 whole entry, species assumed): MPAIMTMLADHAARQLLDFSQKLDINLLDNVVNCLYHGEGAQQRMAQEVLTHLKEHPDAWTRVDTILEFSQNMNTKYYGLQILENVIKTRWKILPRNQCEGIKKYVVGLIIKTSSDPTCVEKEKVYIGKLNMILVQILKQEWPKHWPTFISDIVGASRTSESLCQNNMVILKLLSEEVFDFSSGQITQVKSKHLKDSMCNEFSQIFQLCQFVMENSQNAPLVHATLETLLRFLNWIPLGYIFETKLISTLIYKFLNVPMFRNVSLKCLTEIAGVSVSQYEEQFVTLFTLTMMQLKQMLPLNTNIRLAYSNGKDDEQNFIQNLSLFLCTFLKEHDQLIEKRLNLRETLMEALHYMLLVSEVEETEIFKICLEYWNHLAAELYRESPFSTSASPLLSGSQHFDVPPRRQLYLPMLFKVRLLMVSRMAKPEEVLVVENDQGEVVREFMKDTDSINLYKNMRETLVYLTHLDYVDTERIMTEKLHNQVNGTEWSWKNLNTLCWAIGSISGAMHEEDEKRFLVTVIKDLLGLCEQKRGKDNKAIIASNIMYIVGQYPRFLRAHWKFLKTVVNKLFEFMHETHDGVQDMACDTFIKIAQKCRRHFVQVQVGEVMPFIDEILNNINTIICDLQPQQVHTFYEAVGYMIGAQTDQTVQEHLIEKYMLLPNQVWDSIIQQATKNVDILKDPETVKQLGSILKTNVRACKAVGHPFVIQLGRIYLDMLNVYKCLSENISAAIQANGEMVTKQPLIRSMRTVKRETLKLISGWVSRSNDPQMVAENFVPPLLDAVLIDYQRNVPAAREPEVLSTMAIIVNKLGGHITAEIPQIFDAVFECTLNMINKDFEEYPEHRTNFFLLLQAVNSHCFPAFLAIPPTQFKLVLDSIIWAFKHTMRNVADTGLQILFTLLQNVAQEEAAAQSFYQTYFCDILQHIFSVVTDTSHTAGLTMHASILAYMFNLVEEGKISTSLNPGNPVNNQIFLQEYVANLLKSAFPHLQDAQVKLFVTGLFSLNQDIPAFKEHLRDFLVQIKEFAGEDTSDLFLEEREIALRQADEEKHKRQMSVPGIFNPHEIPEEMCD

SMILES	mortality at 80 mg/kg [1] [%]	Macroscopic pathological score (IBD animal model)	Activity (μM): inhibitory activity for XPO1 protein (full inhibitory concentration) (XPO1 protein) [µM]	Serum TNF-α level, Animal-1 (TNF-α) [ng/mL]	Serum TNF-α level, Animal-2 (TNF-α) [ng/mL]	Serum TNF-α level, Animal-3 (TNF-α) [ng/mL]	activity at 10 µg/mL (HMLE-Snail cell line; [2]) [%]	Serum IL-6 level, Animal-1 (IL-6) [ng/mL]	Serum IL-6 level, Animal-2 (IL-6) [ng/mL]	Serum IL-6 level, Animal-3 (IL-6) [ng/mL]	IC50 (U2932; [3]) [nM]	IC50 (Jeko-1; [4]) [nM]	IC50 (Raji; 72 hours, read-out: IC50) [nM]	IC50 (HO-8910) [nM]	IC50 (A2780) [nM]	also measured
[O-][S+](/C=C/CCN=C=S)c1cc(C(F)(F)F)cc(C(F)(F)F)c1 (centres unmarked) [Compound I-04]	0	1.0 ± 0.5	0.250													response vs control in vivo at 80 mg/kg [1]: 19%; IC50 (NCI-H1975; NCI-H1975, 72 h): 90 nM; IC50 (NCI-H1650; NCI-H1650, 72 h): 80 nM; IC50 (SW620; SW-620, 72 h): 90 nM; IC50 (HCT116; HCT-116, 72 h): 70 nM; activity at 10 µg/mL (HMLE-Snail cell line; 24 h): 10 to 15%; IC50 (U2932; U2932, 72 h): 90 nM; IC50 (Jeko-1; JeKo-1, 72 h): 50 nM; IC50 (Raji; 72 h): 60 nM
COc1cc([S+]([O-])/C=C/CCN=C=S)cc(OC)c1OC (centres unmarked) [Compound I-06]		1.0 ± 0.1	0.200	0.9	0.6	0.5	10 to 15	0.7	0.5	0.3	170	70	100			IC50 (SW620; SW-620, SW620, 72 hours, read-out: IC50): 150 nM; IC50 (HCT116; HCT-116, HCT116, 72 hours, read-out: IC50): 100 nM
[O-][S+](/C=C/CCN=C=S)c1nnnn1-c1ccccc1 (centres unmarked) [Compound I-25]		1.5 ± 0.3		1.0	0.5	0.8	10 to 15	0.6	0.7	0.5	250	150	180	300	700	IC50 (NCI-H1975; NCI-H1975, 72 hours, read-out: IC50): 250 nM; IC50 (NCI-H1650; NCI-H1650, 72 hours, read-out: IC50): 220 nM
[O-][S+](/C=C/CCN=C=S)c1ccc(Oc2ccccc2)cc1 (centres unmarked) [Compound I-27]	0		0.5 to 1				25 to 30							800	1200	response vs control in vivo at 80 mg/kg ([1]; 80 mg/kg intraperitoneal injection once a day for 3 weeks): 25%
